Reference: PubChem BioAssay (NCI)
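Growth conditions: 96-well plates. Treatment: test compound, 48 hours, 5 concentrations. Analysis: linear interpolation between bracketing concentrations; unreached endpoints set to highest concentration. At the TGI there is no net growth.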

Key:
Test in all cases: NCI-60 cell line screen, 48 h
786-0 renal = system: 786-0 renal
A498 renal = system: A498 renal
A549 NSCLC = system: A549 NSCLC
ACHN renal = system: ACHN renal
CAKI-1 renal = system: CAKI-1 renal
CCRF-CEM leukemia = system: CCRF-CEM leukemia
COLO 205 colon = system: COLO 205 colon
DLD-1 colon = system: DLD-1 colon
DMS 114 small cell lung = system: DMS 114 small cell lung
DMS 273 small cell lung = system: DMS 273 small cell lung
EKVX NSCLC = system: EKVX NSCLC
HCT-116 colon = system: HCT-116 colon
HL-60(TB) leukemia = system: HL-60(TB) leukemia
HOP-18 NSCLC = system: HOP-18 NSCLC
HOP-62 NSCLC = system: HOP-62 NSCLC
HOP-92 NSCLC = system: HOP-92 NSCLC
HT29 colon = system: HT29 colon
IGROV1 ovarian = system: IGROV1 ovarian
K-562 leukemia = system: K-562 leukemia
KM12 colon = system: KM12 colon
KM20L2 colon = system: KM20L2 colon
LOX IMVI melanoma = system: LOX IMVI melanoma
LXFL 529 NSCLC = system: LXFL 529 NSCLC
M14 melanoma = system: M14 melanoma
M19-MEL melanoma = system: M19-MEL melanoma
MALME-3M melanoma = system: MALME-3M melanoma
MOLT-4 leukemia = system: MOLT-4 leukemia
NCI-H226 lung = system: NCI-H226 lung
NCI-H23 lung = system: NCI-H23 lung
NCI-H460 lung = system: NCI-H460 lung
NCI-H522 lung = system: NCI-H522 lung
OVCAR-3 ovarian = system: OVCAR-3 ovarian
OVCAR-4 ovarian = system: OVCAR-4 ovarian
OVCAR-5 ovarian = system: OVCAR-5 ovarian
OVCAR-8 ovarian = system: OVCAR-8 ovarian
RPMI-8226 leukemia = system: RPMI-8226 leukemia
RXF 393 renal = system: RXF 393 renal
SF-268 CNS = system: SF-268 CNS
SF-295 CNS = system: SF-295 CNS
SF-539 CNS = system: SF-539 CNS
SK-MEL-2 melanoma = system: SK-MEL-2 melanoma
SK-MEL-28 melanoma = system: SK-MEL-28 melanoma
SK-MEL-5 melanoma = system: SK-MEL-5 melanoma
SK-OV-3 ovarian = system: SK-OV-3 ovarian
SN12C renal = system: SN12C renal
SNB-19 CNS = system: SNB-19 CNS
SNB-75 CNS = system: SNB-75 CNS
SNB-78 CNS = system: SNB-78 CNS
SW-620 colon = system: SW-620 colon
TK-10 renal = system: TK-10 renal
U251 CNS = system: U251 CNS
UACC-257 melanoma = system: UACC-257 melanoma
UACC-62 melanoma = system: UACC-62 melanoma
UO-31 renal = system: UO-31 renal
XF 498 CNS = system: XF 498 CNS
HCC-2998 colon = system: HCC-2998 colon
HCT-15 colon = system: HCT-15 colon
BT-549 breast = system: BT-549 breast
DU-145 prostate = system: DU-145 prostate
HS 578T breast = system: HS 578T breast
MCF7 breast = system: MCF7 breast
MDA-MB-231 breast = system: MDA-MB-231 breast
MDA-MB-435 = system: MDA-MB-435
MDA-N = system: MDA-N
NCI/ADR-RES ovarian = system: NCI/ADR-RES ovarian
PC-3 prostate = system: PC-3 prostate
SR leukemia = system: SR leukemia
T-47D breast = system: T-47D breast

## O=C(OCCO)C1CC2CC1C1(C2)OCCO1 (stereo not drawn)
786-0 renal
  TGI: > 100 µM
A498 renal
  TGI: > 100 µM
A549 NSCLC
  TGI: > 100 µM
ACHN renal
  TGI: > 100 µM
CAKI-1 renal
  TGI: > 100 µM
CCRF-CEM leukemia
  TGI: > 100 µM
COLO 205 colon
  TGI: > 100 µM
DLD-1 colon
  TGI: > 100 µM
DMS 114 small cell lung
  TGI: > 100 µM
DMS 273 small cell lung
  TGI: > 100 µM
EKVX NSCLC
  TGI: > 100 µM
HCT-116 colon
  TGI: > 100 µM
HL-60(TB) leukemia
  TGI: > 100 µM
HOP-18 NSCLC
  TGI: > 100 µM
HOP-62 NSCLC
  TGI: > 100 µM
HOP-92 NSCLC
  TGI: > 100 µM
HT29 colon
  TGI: > 100 µM
IGROV1 ovarian
  TGI: > 100 µM
K-562 leukemia
  TGI: > 100 µM
KM12 colon
  TGI: > 100 µM
KM20L2 colon
  TGI: > 100 µM
LOX IMVI melanoma
  TGI: > 100 µM
LXFL 529 NSCLC
  TGI: > 100 µM
M14 melanoma
  TGI: > 100 µM
M19-MEL melanoma
  TGI: > 100 µM
MALME-3M melanoma
  TGI: > 100 µM
MOLT-4 leukemia
  TGI: > 100 µM
NCI-H226 lung
  TGI: > 100 µM
NCI-H23 lung
  TGI: > 100 µM
NCI-H460 lung
  TGI: > 100 µM
NCI-H522 lung
  TGI: > 100 µM
OVCAR-3 ovarian
  TGI: > 100 µM
OVCAR-4 ovarian
  TGI: > 100 µM
OVCAR-5 ovarian
  TGI: > 100 µM
OVCAR-8 ovarian
  TGI: > 100 µM
RPMI-8226 leukemia
  TGI: > 100 µM
RXF 393 renal
  TGI: > 100 µM
SF-268 CNS
  TGI: > 100 µM
SF-295 CNS
  TGI: > 100 µM
SF-539 CNS
  TGI: > 100 µM
SK-MEL-2 melanoma
  TGI: > 100 µM
SK-MEL-28 melanoma
  TGI: > 100 µM
SK-MEL-5 melanoma
  TGI: > 100 µM
SK-OV-3 ovarian
  TGI: > 100 µM
SN12C renal
  TGI: > 100 µM
SNB-19 CNS
  TGI: > 100 µM
SNB-75 CNS
  TGI: > 100 µM
SNB-78 CNS
  TGI: > 100 µM
SW-620 colon
  TGI: > 100 µM
TK-10 renal
  TGI: > 100 µM
U251 CNS
  TGI: > 100 µM
UACC-257 melanoma
  TGI: > 100 µM
UACC-62 melanoma
  TGI: > 100 µM
UO-31 renal
  TGI: > 100 µM
XF 498 CNS
  TGI: > 100 µM

## CC(=O)OC(C[C@H](C)[C@@H]1CC[C@]2(C)C3=CCC4C(C)(C)C(=O)CC[C@]4(C)C3CCC12C)C1OC1(C)C (stereo partly drawn)
786-0 renal
  TGI: 43.2 µM
A498 renal
  TGI: 31.7 µM
A549 NSCLC
  TGI: > 100 µM
ACHN renal
  TGI: 31.9 µM
CCRF-CEM leukemia
  TGI: > 100 µM
COLO 205 colon
  TGI: 48.3 µM
DLD-1 colon
  TGI: > 100 µM
DMS 114 small cell lung
  TGI: > 100 µM
DMS 273 small cell lung
  TGI: 77.6 µM
EKVX NSCLC
  TGI: > 100 µM
HCC-2998 colon
  TGI: 30.7 µM
HCT-116 colon
  TGI: 94.1 µM
HCT-15 colon
  TGI: > 100 µM
HL-60(TB) leukemia
  TGI: 29.5 µM
HOP-18 NSCLC
  TGI: > 100 µM
HOP-62 NSCLC
  TGI: 42.7 µM
HOP-92 NSCLC
  TGI: 24.3 µM
HT29 colon
  TGI: 42.7 µM
IGROV1 ovarian
  TGI: > 100 µM
K-562 leukemia
  TGI: > 100 µM
KM12 colon
  TGI: 47.4 µM
KM20L2 colon
  TGI: > 100 µM
LOX IMVI melanoma
  TGI: > 100 µM
LXFL 529 NSCLC
  TGI: > 100 µM
M14 melanoma
  TGI: 55.4 µM
M19-MEL melanoma
  TGI: > 100 µM
MALME-3M melanoma
  TGI: 89.2 µM
MOLT-4 leukemia
  TGI: > 100 µM
NCI-H226 lung
  TGI: 29 µM
NCI-H23 lung
  TGI: 86.4 µM
NCI-H522 lung
  TGI: 36.5 µM
OVCAR-3 ovarian
  TGI: > 100 µM
OVCAR-4 ovarian
  TGI: > 100 µM
OVCAR-5 ovarian
  TGI: 31.8 µM
OVCAR-8 ovarian
  TGI: > 100 µM
RPMI-8226 leukemia
  TGI: > 100 µM
RXF 393 renal
  TGI: 28.6 µM
SF-268 CNS
  TGI: 83.2 µM
SF-295 CNS
  TGI: > 100 µM
SF-539 CNS
  TGI: > 100 µM
SK-MEL-2 melanoma
  TGI: > 100 µM
SK-MEL-28 melanoma
  TGI: 88.2 µM
SK-OV-3 ovarian
  TGI: 25.7 µM
SNB-19 CNS
  TGI: > 100 µM
SW-620 colon
  TGI: > 100 µM
TK-10 renal
  TGI: 35.4 µM
U251 CNS
  TGI: 66.8 µM
UACC-257 melanoma
  TGI: 75.1 µM
UACC-62 melanoma
  TGI: > 100 µM
UO-31 renal
  TGI: 25.8 µM
XF 498 CNS
  TGI: 43.8 µM

## COc1ccc(/C=c2/s/c(=C(\C#N)c3nc4ccccc4[nH]3)n(-c3ccccc3)c2=O)cc1
786-0 renal
  TGI: > 42.1 µM
A498 renal
  TGI: > 76.5 µM
A549 NSCLC
  TGI: > 100 µM
ACHN renal
  TGI: > 100 µM
BT-549 breast
  TGI: 54.8 µM
CAKI-1 renal
  TGI: > 100 µM
CCRF-CEM leukemia
  TGI: > 100 µM
COLO 205 colon
  TGI: > 100 µM
DLD-1 colon
  TGI: > 100 µM
DMS 114 small cell lung
  TGI: > 100 µM
DMS 273 small cell lung
  TGI: > 100 µM
DU-145 prostate
  TGI: > 100 µM
EKVX NSCLC
  TGI: > 100 µM
HCC-2998 colon
  TGI: > 100 µM
HCT-116 colon
  TGI: > 55.7 µM
HCT-15 colon
  TGI: > 100 µM
HL-60(TB) leukemia
  TGI: > 100 µM
HOP-18 NSCLC
  TGI: 79 µM
HOP-62 NSCLC
  TGI: > 54 µM
HOP-92 NSCLC
  TGI: 37.7 µM
HS 578T breast
  TGI: 22.4 µM
HT29 colon
  TGI: 24.7 µM
IGROV1 ovarian
  TGI: > 100 µM
K-562 leukemia
  TGI: > 100 µM
KM12 colon
  TGI: > 100 µM
KM20L2 colon
  TGI: > 100 µM
LOX IMVI melanoma
  TGI: > 100 µM
LXFL 529 NSCLC
  TGI: > 100 µM
M14 melanoma
  TGI: > 100 µM
M19-MEL melanoma
  TGI: > 100 µM
MALME-3M melanoma
  TGI: > 88.6 µM
MCF7 breast
  TGI: > 100 µM
MDA-MB-231 breast
  TGI: 49.5 µM
MDA-MB-435
  TGI: > 100 µM
MDA-N
  TGI: > 100 µM
MOLT-4 leukemia
  TGI: > 100 µM
NCI-H226 lung
  TGI: 92.7 µM
NCI-H23 lung
  TGI: > 63.5 µM
NCI-H460 lung
  TGI: > 74.9 µM
NCI-H522 lung
  TGI: > 100 µM
NCI/ADR-RES ovarian
  TGI: 20.3 µM
OVCAR-3 ovarian
  TGI: > 75.3 µM
OVCAR-4 ovarian
  TGI: 28.1 µM
OVCAR-5 ovarian
  TGI: > 100 µM
OVCAR-8 ovarian
  TGI: 51 µM
PC-3 prostate
  TGI: 67.3 µM
RPMI-8226 leukemia
  TGI: > 100 µM
RXF 393 renal
  TGI: > 100 µM
SF-268 CNS
  TGI: > 100 µM
SF-295 CNS
  TGI: > 100 µM
SF-539 CNS
  TGI: > 61.5 µM
SK-MEL-2 melanoma
  TGI: > 100 µM
SK-MEL-28 melanoma
  TGI: > 100 µM
SK-MEL-5 melanoma
  TGI: > 100 µM
SK-OV-3 ovarian
  TGI: 71.6 µM
SN12C renal
  TGI: > 100 µM
SNB-19 CNS
  TGI: > 100 µM
SNB-75 CNS
  TGI: > 68.8 µM
SR leukemia
  TGI: > 100 µM
SW-620 colon
  TGI: > 58.9 µM
T-47D breast
  TGI: > 100 µM
TK-10 renal
  TGI: > 100 µM
U251 CNS
  TGI: > 100 µM
UACC-257 melanoma
  TGI: > 100 µM
UACC-62 melanoma
  TGI: > 47.5 µM
UO-31 renal
  TGI: > 100 µM
XF 498 CNS
  TGI: 88.6 µM
